Test results from PMC11851449, “Blm10-Based Compounds Add to the Knowledge of How Allosteric Modulators Influence Human 20S Proteasome” (ACS Chemical Biology, 2025).

Experiments:
human 20S proteasome [1] = tested on: T1, human 20S proteasome; assay: ChT-L peptidase activity of latent h20S probed with Suc-LLVY-AMC; assay type: biochemical; conditions: 10 μM bortezomib, Suc-LLVY-AMC 100 μM; activators could not overcome the inhibition
T1 construct: 20S proteasome was isolated from human erythrocytes; from tissue; host or cells: human erythrocytes
Description: (§1) The capacity of influencing the human 20S proteasome was examined using the latent enzyme isolated from human erythrocytes. Boc-LRR-AMC, Z-LLE-AMC, and Suc-LLVY-AMC fluorogenic substrates (Enzo Life Sciences Inc.) were used for assessment of the trypsin-, caspase-, and chymotrypsin-like activities, respectively. As an additional probe, we utilized a homemade FRET-type substrate DabEDS (Lys(Dabcyl)-[…]EDANS)-Gly[36]). Stock solutions of the substrates and modulators were prepared in dimethyl sulfoxide (DMSO). […] The activity assays were performed in a 96-well plate format in 50 mM Tris/HCl, pH 8.0. The CP was used at a final concentration of 0.002 mg mL^–1 (2.8 nM). The final concentrations of LLVY, LRR, and LLE substrates were 100 μM and DabEDS 15 μM. The concentration of reagents in the tests with inhibitors was as follows: 10 μM bortezomib (tebu-bio), 50 μM leupeptin (Roth), and 10 μM activators. The release of the aminomethylcoumarin (AMC) reporter group was followed by monitoring the fluorescence emission at 460 nm (λex was 380 nm). DabEDS hydrolysis was detected by measuring the emission at 493 nm, while the excitation wavelength was set at 335 nm. Fluorescence measurements were carried out using an Infinite M200 Pro plate reader (Tecan), every 2 min for up to 60 min at 37 °C. All activity assays were performed in at least three independent replicates.

human 20S proteasome [2] = tested on: T1, human 20S proteasome; assay: C-L peptidase activity of latent h20S probed with Z-LLE-AMC; assay type: biochemical; conditions: 10 μM bortezomib
Description: as §1

inhibition of h20S ChT-L activity (in words) (human 20S proteasome [1]): complete loss of proteasome activity
SMILES: CC(C)C[C@H](NC(=O)[C@H](Cc1ccccc1)NC(=O)c1cnccn1)B(O)O [bortezomib]
inhibition of h20S C-L activity (in words) (human 20S proteasome [2]): completely blocked the activity of the ChT-L and C-L
